Holding throughout (type): ADME, organism-based
Data set [1] relates to Triticum aestivum. Nature of the data set: Drug recovery in BavarianTriticum aestivum (wheat) samples at 10 ug/kg after 1 day by LC-MS analysis. To be noted: in vivo, 0.01 mg/kg, 24 h.
The test system of data set [2] is Triticum aestivum. Nature of the data set: Drug recovery in Bavarian Triticum aestivum (wheat) samples at 100 ug/kg after 1 day by LC-MS analysis. The settings on record: in vivo, 0.1 mg/kg, 24 h.
Data set [3] relates to Triticum aestivum. Nature of the data set: Drug level in Bavarian Triticum aestivum (wheat) at 10 to 100 ug/kg after 1 day by LC-MS analysis. The settings on record: in vivo, 24 h.

As to `C[C@H]1CCCC(=O)CCC/C=C/c2cc(O[C@@H]3O[C@H](CO)[C@@H](O)[C@H](O)[C@H]3O)cc(O)c2C(=O)O1` [Zearalenone-4-beta-D-glucopyranoside], the figures for the Drug recovery in the data set on Triticum aestivum [1] and in the data set on Triticum aestivum [2] were 67% and 69%, respectively. Further, in the data set on Triticum aestivum [3], the Drug uptake amounted to 17 µg/kg.

As for `C[C@H]1CCCC(=O)CCC/C=C/c2cc(O)cc(O)c2C(=O)O1` [ZEARALENONE], the values for the Drug recovery in the data set on Triticum aestivum [1] and with Triticum aestivum [2] were 32% and 89%, respectively. The compound also came in with a Drug uptake with Triticum aestivum [3] of 11 µg/kg.

Values taken from ChEMBL document CHEMBL3045413, “Occurrence of zearalenone-4-beta-D-glucopyranoside in wheat” (J Agric Food Chem, 2002).
